From patent US20260242748A1, “FORMULATION FOR CELL CRYOPRESERVATION” (ENCELL CO., LTD, priority 2023, published 2026) come the findings set out here.

The structures appear in SMILES notation.

Assay [1] deals with WJ-MSCs. Conditions: FIG. 1.
Description: Specifically, the umbilical cord was cut into 3-4 cm lengths, the tissue was finely chopped and treated with collagenase solution (Gibco, USA) for 60 to 90 minutes to degrade the extracellular matrix, and 0.25% trypsin (Gibco, USA) was added to further induce digestion for 30 minutes at 37° C. Then, fetal bovine serum (FBS; Biowest, USA) was added and cells were obtained by centrifugation at 1,000 g for 10 minutes, and then were cultured in a 5% CO2 environment at 37° C. using MEM Alpha (Minimum Essential Medium, Invitrogen-Gibco, Rockville, MD) medium containing 10% FBS (fetal bovine serum, Invitrogen-Gibco) and 50 μg/mL gentamicin (Invitrogen-Gibco) to obtain human umbilical cord-derived mesenchymal stem cells (WJ-MSCs), which were then used in the experiment. […] The WJ-MSCs were seeded at 1×10^4 cells in a 96-well plate and cultured for 24 hours.
The subject of assay [2] is WJ-MSCs. To be noted: glutathione at 100 μM (tested 0, 10, 50, 100 μM) after H2O2 0-100 μM; FIG. 2. The procedure: In order to determine the optimal concentration of glutathione in the cryopreservation formulation, the WJ-MSCs were treated with hydrogen peroxide (H2O2) at concentrations of 0 μM, 10 μM, 50 μM, and 100 μM, to induce stress caused by reactive oxygen species, and then further treated with glutathione at concentrations of 0 μM, 10 μM, 50 μM, and 100 μM, and cell recovery was evaluated using a CCK-8 assay.

In the case of `N[C@@H](CCC(=O)N[C@@H](CS)C(=O)NCC(=O)O)C(=O)O` [glutathione], in the assay with WJ-MSCs [1] (1×10^4 cells in 96-well plate, cultured 24 hours, compared with acetadote, fursultiamine hydrochloride, vitamin C), the cell viability result is “highest”. For the same compound, the cell proliferation entry in the assay with WJ-MSCs [1] (CCK-8 assay) is listed as “further increased”. Besides, the “cell viability (cell recovery)” value with WJ-MSCs [2] was “highest”.
